{"source": "paper PMC5656594", "about": "(Scientific Reports, 2017)", "key": {"DNA alone (PFV^CAAT)": {"tested_on": "DNA alone (PFV^CAAT)", "assay": "DTG fluorescence enhancement in the presence of DNA alone", "assay_type": "binding, prototype foamy virus (PFV)", "conditions": "1 mM Mg2+", "description": "The three other conditions (i→iii) led to superimposable spectra. To note, the presence of IN/DNA complexes accounts for light scattering on the blue side of the spectrum.\nAll experiments were performed in the presence of 1 mM Mg^2+ (see Supplementary Fig. S4 for [Mg^2+] = 10 mM). λex = 345 nm and PMT = 980 V (Δλex = Δλem = 5 nm). […] Contributions of Raman and Rayleigh scattering were eliminated in the inset spectrum: (viii) = (iv)–(vii) where (vii) represents the proper spectrum of Mg^2+-DTG in the context of the binary IN-DNA complex. […] [Mg^2+] = 1 mM. Inset: fluorescence intensity (375–385 nm) as a function of (IN + DNA). The arrows indicate the intensity level after addition of 500 mM NaCl. Emission spectra are representative of 3 independent experiments for each condition of (IN + DNA). […] (E) Measurement of the binary IN-DNA complex formation. The formation of binary complexes was performed by monitoring the fluorescence anisotropy (r) of DNA (Fl-PFV^CAAT) under similar experimental conditions of the DTG-binding assay (panels C-D). Top, varying stoichiometric concentrations of IN and DNA were mixed and the r parameter was monitored. […]\nFluorescence excitation and emission spectra of INSTIs were recorded on a Eclipse (Varian) spectrofluorimeter equipped with two polarizers for anisotropy measurements and a thermostated cell holder, using 80 µl solutions placed in micro cells (Hellma). […]"}, "G187R IN^PFV-DNA complex": {"target": "T1, G187R IN^PFV-DNA complex (Human spumaretrovirus, UniProt P14350, G938R/G968S/S969G)", "T1 construct": "The pET-IN-PFV plasmid containing the full-length IN gene was used for mutagenesis; His; made in house; host or cells: E. coli BL21-CodonPlus (DE3)-RIPL", "assay": "Fluorescence enhancement DTG-binding assay, G187R mutant", "parameters": "species or system prototype foamy virus (PFV)", "conditions": "DTG 0.3 μM, 1 mM Mg2+", "description": "The fluorescence intensity was monitored as a function of (IN + DNA) and plotted as a function of the binary IN-DNA complex concentration (measured as explained in Fig. 2E legend). […] The graphs in panels A-B show representative data of three independent experiments.\nFluorescence excitation and emission spectra of INSTIs were recorded on a Eclipse (Varian) spectrofluorimeter equipped with two polarizers for anisotropy measurements and a thermostated cell holder, using 80 µl solutions placed in micro cells (Hellma). Drug, IN and DNA concentrations, excitation/emission slit settings as well as the photomultiplier tube (PMT) voltage are specified in figure legends. The intensity value was corrected from the inner filter effect. The steady-state fluorescence anisotropy was calculated using: r = (IVV–G x IVH)/(IVV + 2GxIVH) where IVV and IVH correspond to vertical and horizontal components, respectively, when the sample is excited with vertically polarized light. G represents the correction factor for the difference in the monochromator transmission between // and ⊥ polarized components: G = IHV/IHH. All experiments were performed at 25 °C in buffer A: 20 mM Tris pH 7.2, 50 mM NaCl, 1 mM DTT and 10% (v/v) DMSO."}}, "data": [{"smiles": "C[C@@H]1CCO[C@H]2Cn3cc(C(=O)NCc4ccc(F)cc4F)c(=O)c(O)c3C(=O)N12", "note": "[DTG, dolutegravir]", "values": [{"measurement": "DTG binding to DNA alone", "setting": "DNA alone (PFV^CAAT)", "value": "no DTG binding"}, {"measurement": "DTG binding to G187R", "setting": "G187R IN^PFV-DNA complex", "value": "No binding"}]}]}
